Assays:
[1] = tested on: green peach aphid (Myzus persicae); experiment: Myzus test, spray treatment, Example F; format: in vivo; conditions: 500 g a.i./ha, China cabbage leaf sections
Method: (§1) To prepare a suitable active compound preparation 1 part by weight of the active compound is mixed with the given amount of solvent and the given amount of emulsifier and the concentrate is diluted to the desired concentration with water containing emulsifier.
China cabbage leaf sections (brassica pekinensis) that are infected with all stages of the green peach aphid (Myzus persicae) are sprayed with an active compound preparation at the desired concentration.
(§2) After the desired time the activity in % is determined. Here 100% means that all aphids were killed; 0% means that no aphids were killed.

[2] = tested on: fall army worm (Spodoptera frugiperda); experiment: Spodoptera frugiperda test, Example G; format: in vivo; conditions: 500 g a.i./ha, cabbage leaves, immersion, caterpillars
Method: as §1
Cabbage leaves (Brassica oleracea) are treated by immersion in the active compound preparation at the desired concentration and infected with caterpillars of the fall army worm (Spodoptera frugiperda) while the leaves are still wet.
After the desired time the death rate in % is determined. Here 100% means that all caterpillars were killed; 0% means that no caterpillars were killed.

[3] = tested on: green peach aphid (Myzus persicae); experiment: Myzus persicae test (cabbage leaves, immersion), Example A; format: in vivo; conditions: for Death rate in % after 6d: 1000 ppm, cabbage leaves (Brassica oleracea)
Method: (§3) To prepare a suitable active compound preparation 1 part by weight of the active compound is mixed with the given amount of solvent and the given amount of emulsifier and the concentrate is diluted to the desired concentration with water.
Cabbage leaves (Brassica oleracea) that are highly infested with the green peach aphid (Myzus persicae) are treated by immersion in the active compound preparation at the desired concentration.
(§4) After the desired time the death rate in % is determined. Here 100% means that all aphids were killed; 0% means that no aphids were killed.

[4] = tested on: green peach aphid (Myzus persicae); experiment: Myzus persicae test, soil application, Example C; format: in vivo; conditions: pepper plant
Method: as §3
The active compound preparation is mixed with soil. The concentration given relates to the amount of active compound per unit volume soil (mg/l=ppm). The treated soil is filled into pots and planted with one pepper plant (Capsicum annuum). After one week infection is carried out with the green peach aphid (Myzus persicae).
as §2

[5] = tested on: cotton aphid (Aphis gossypii); experiment: Aphis gossypii test, soil application, Example D; format: in vivo; conditions: cotton plant
Method: as §3
The active compound preparation is mixed with soil. The concentration given relates to the amount of active compound per unit volume soil (mg/l=ppm). The treated soil is filled into pots and planted with one cotton plant (Gossypium hirsutum). After a week infection is carried out with the cotton aphid (Aphis gossypii).
as §4

[6] = tested on: green peach aphid (Myzus persicae); experiment: Myzus test, spray treatment, Example B; format: in vivo; conditions: Chinese cabbage leaves
Method: To prepare a suitable active compound preparation 1 part by weight of the active compound is mixed with the given amount of solvent and the given amount emulsifier and the concentrate is diluted to the desired concentration with water.
Chinese cabbage leaves (Brassica pekinensis) infested with all stages of the green peach aphid (Myzus persicae) were sprayed with an active compound preparation at the desired concentration.
as §4

[7] = tested on: white fly (Bemisia tabaci, resistant strain); experiment: Bemisia tabaci test, resistant strain, Example E; format: in vivo; conditions: cotton leaf sections, immersion
Method: as §1
Leaf sections of cotton plants (Gossypium hirsutum) are treated by immersion in the active compound preparation at the desired concentration and after drying of the coating are infected with adults of the white fly (Bemisia tabaci, resistant strain).
After the desired time the death rate in % is determined. Here 100% means that all animals were killed; 0% means that no animals were killed.

physchem = conditions: pH 2
[8] = tested on: mixed thrips population (Frankliniella occidentalis); experiment: Frankliniella occidentalis test, Example H; format: in vivo; conditions: 100 ppm, cotton plants, spraying
Method: as §1
Cotton plants (Gossypium hirsutum) are treated by spraying with the active compound preparation at the desired concentration and infected with a mixed thrips population (Frankliniella occidentalis).
After the desired time the death rate in % is determined. Here 100% means that all thrips were killed; 0% means that no thrips were killed.

**Q.** For `CON/C(=N\C#N)NCc1ccc(Cl)nc1`, which “Activity in % after 5d” value [1] is on record?
**A.** 100%

**Q.** With `CON/C(=N\[N+](=O)[O-])N(C)Cc1ccc(Cl)nc1` as the molecule, how does the “Activity in % after 5d” value [1] read?
**A.** 100%

**Q.** For `CON/C(=N\C#N)NCc1cnc(Cl)s1`, which “Death rate in % after 7d” value [2] is on record?
**A.** 100%

**Q.** For `CON/C(=N\[N+](=O)[O-])NCc1ccc(Cl)nc1` [Example I-1, N-methoxy-N′-(2-chloropyrid-5-ylmethyl)nitroguanidine], which “Death rate in % after 6d” value [3] is on record?
**A.** 98%

**Q.** And the “Death rate in % after 7d” value ([4]; 8 ppm (mg/l soil))?
**A.** 100%

**Q.** And the “Death rate in % after 7d” value ([5]; 8 ppm (mg/l soil))?
**A.** 100%

**Q.** For `CCON/C(=N/[N+](=O)[O-])NCc1ccc(Cl)nc1` [Example I-2], which “Death rate in % after 4d” value ([6]; 500 ppm, after 4 d) is on record?
**A.** 100%

**Q.** And the “activity in Myzus test, spray treatment” value [6]?
**A.** good activity

**Q.** Which results are given for `CON/C(=N/[N+](=O)[O-])NCc1cnc(Cl)s1` [Example I-5]?
**A.** Death rate in % after 6d [3]: 98%; activity in Myzus persicae test ([3]; cabbage leaves): good activity; Death rate in % after 7d ([4]; 0.25 ppm (mg/l soil)): 85%; activity in Myzus persicae test, soil application [4]: good activity; Death rate in % after 7d ([5]; 0.25 ppm (mg/l soil)): 80%; activity in Aphis gossypii test, soil application [5]: good activity; Death rate in % after 3d ([7]; 1000 ppm, after 3 d, adults): 93%; activity in Bemisia tabaci test, resistant strain [7]: good activity; logP (physchem): 1.13

**Q.** With `CON/C(=N/[N+](=O)[O-])NCc1cnc(Cl)s1` [drawing 35] as the molecule, how does the “Death rate in % after 14d” value [8] read?
**A.** 90%
